We go through two compounds from EP0127864A2, “D-homo-4,9,16-estratrienes, their preparation and pharmaceutical compositions containing them” (SCHERING AKTIENGESELLSCHAFT, priority 1983, dated 1984).

In the experiment the test system is Ratte. Put plainly: Abortive effect in pregnant rats (measure of antigestagenic activity). In kind it is in vivo. To be noted: for n Abort / n Gesamt: subcutan, d5 p.c. to d7 p.c., uteri examined d9 p.c., absence of implants counted as abortion. From the text:
Zur Kennzeichnung der antigestagenen Wirkung wurde die abortive Wirkung bestimmt.
Die Versuche wurden an weiblichen Ratten im Gewicht von ca. 200 g durchgeführt. Nach erfolgter Anpaarung wurde der Schwangerschaftsbeginn durch Nachweis von Spermien in Vaginalabstrichen gesichert. Der Tag des Spermiennachweises gilt als Tag 1 der Gravidität (= dl p.c.).
Die Behandlung der Tiere mit der jeweils zu testenden Substanz bzw. dem Lösungsmittel erfolgte nach der Nidation der Blastocysten von d5 p.c. bis d7 p.c.
An d9 p.c. wurden die Tiere getötet und die Uteri auf Implantate und Resorptionsstellen hin untersucht. Von allen Uteri wurden Fotos angefertigt. Das Fehlen von Implantaten wurde als Abort gewertet.
Die Testsubstanzen wurden in einem Benzylbenzoat-Rizinusöl-Gemisch (Verhältnis 1 + 9) gelöst. Das Vehikelvolumen pro Einzeldosis betrug 0,2 ml. Die Behandlung erfolgte subcutan.

Regarding `CC#C[C@]1(O)CC[C@H]2[C@@H]3CCC4=CC(=O)CCC4=C3[C@@H](c3ccc(N(C)C)cc3)C[C@@]21C` [B, 11ß-(4-Dimethylaminophenyl)-17ß-hydroxy-17a-(propin-1-yl)-4,9(10)-estradien-3-on, reference compound], for the setting “Dosierung 1,0 mg”, the Aborte worked out at 50%. For the same compound, the “n Abort / n Gesamt” value is listed as 2/4 (Dosis 1.0 mg/Tier/Tag), 4/4 (Dosis 3.0 mg/Tier/Tag) and 4/4 (Dosis 10.0 mg/Tier/Tag).

Regarding `CC#C[C@]1(O)C=CC[C@H]2[C@@H]3CCC4=CC(=O)CCC4=C3[C@@H](c3ccc(N(C)C)cc3)C[C@@]21C` [A, 11ß-(4-Dimethylaminophenyl)-17aß-hydroxy-17aα-(1-propinyl)-U-homo-4,9,16-estratrien-3-on], the “Wirksamkeit (Abortauslösung)” value (Dosierung 1,0 mg, result in words) is “voll wirksam”. The “n Abort / n Gesamt” value is reported as 2/4 (Dosis 0.3 mg/Tier/Tag), 4/4 (Dosis 1.0 mg/Tier/Tag), 4/4 (Dosis 3.0 mg/Tier/Tag) and 4/4 (Dosis 10.0 mg/Tier/Tag).
